In patent publication US20210009682A1, “REDUCING CUTANEOUS SCAR FORMATION AND TREATING SKIN CONDITIONS” (Northwestern University, priority 2013, published 2021):
Entries after “also recorded” stand apart in the source; their conditions may differ. Structures can show the parent of a compound that is named as a salt.

Assays:
[1] = test system: dermal fibroblasts; test: Activation of dermal fibroblasts (α-SMA and pro-Col I expression) by HaCaT condition medium; assay type: cell-based, human; conditions: for activation of fibroblasts: PGE2 receptor blockade in condition medium from HaCaT with increased water loss
Description: FIGS. 3A-C. ENaC senses sodium concentration changes in keratinocytes and regulates downstream genes. Stratified HaCaT and fibroblast were co-cultured in transwell plates and subjected to increased water loss and control conditions for 16 hours. Expression of α-SMA and pro-Col I was detected in dermal fibroblasts (HDF) with their specific antibodies and visualized with fluorescence labeled secondary antibodies, Nuclei were stained with DAPI. (FIG. 3A, Panels A-D) Stratified HaCaT and fibroblasts in control condition. (FIG. 3A, Panels E-H) Stratified HaCaT and fibroblasts in increased water loss condition. (FIG. 3A, Panels I-L) Stratified ENaC knockdown HaCaT and fibroblasts in control condition. (FIG. 3A, Panels M-P) Stratified ENaC knockdown HaCaT and fibroblasts in increased water loss condition. (FIGS. 3B-C) The quantification of expression levels of α-SMA and pro-Col I by ImageJ. The scale bar represents 100 μm. *p<0.05, **p<0.01.
FIGS. 4A-C. Show results from Example 1 where it was determine that PGE2 is important for the activation of fibroblasts by keratinocytes. As described in Example 1, condition medium of stratified wild type (or ENaC knockdown) HaCaT culture under increased water loss was collected and supplemented to fibroblasts for 24 hours. Expression of α-SMA and pro-collagen I in dermal fibroblasts was tested as described in
FIG. 3. (FIG. 4A, Panels A-D) Wild type HaCaT condition medium (CM). (FIG. 4A, Panels E-H) ENaC-knockdown HaCaT condition medium. (FIG. 4A, Panels I-L) ENaC-knockdown HaCaT condition medium plus 10 μM of PGE2. (FIGS. 4B-C) Quantification of expression levels of α-SMA (FIG. 4B) and pro-Col I (FIG. 4C) was performed by ImageJ. The scale bar represents 100 μm. **p<0.01.
Since the PGE2 is a downstream product of COX-2 and found to be involved in regulation of fibroblast cytoskeletal dynamics during airway epithelium injury (37), it was hypothesized that PGE2 signaling is important for keratinocyte-fibroblast signaling. […]

[2] = test system: rabbit ear hypertrophic scar; test: Hypertrophic scar model in the rabbit ear (scar elevation index); assay type: in vivo; conditions: for scar elevation index (SEI): topical, harvested POD28
Description: As described in Example 1, full thickness 7 mm excision wounds were made on the ventral side of the rabbit ears at PODO. Amiloride (an ENaC inhibitor) or Celecoxib (a COX-2 inhibitor) was applied to the wounds every other day for a total of three times starting at POD14. Wounds harvested at POD28 and histological analysis was performed. (A-D) Representative pictures of wound histology at POD28. Rabbit ear wounds with Amiloride treatment (B) and control (A) and with Celecoxib treatment (D) and its control (C) are shown. (E) The scar elevation index (SEI) was calculated and used to evaluate the scar formation. (F. G) SEI. Twelve wounds for each dose of treatment and 12 controls were used for the analysis. *P<0.05. Scar bar stands for 1000 μm. **p<0.01. […] The present invention is not limited by such a mechanism and an understanding of the mechanism is not necessary to practice the present invention.
Sustained activation of dermal fibroblasts with accumulation of collagen is the main cause of hypertrophic scars (38, 39). […] The role of the ENaC-COX-2 pathway was investigated in vivo utilizing a well validated hypertrophic scar model in the rabbit ear (31, 40-43). Amiloride, an ENaC antagonist, was topically applied to the rabbit ear wounds after re-epithelialization was complete. Control scars, located on the contralateral ear, were treated with vehicle alone. In this model, absence of scar elevation gives a scar elevation index (SEI) of 1.0, and control wounds heal with an elevated scar (SEI >1). […] This reduction in scarring exceeds other therapies in validated model of hypertrophic scarring (14, 44, 45). In an identically designed experiment, Celecoxib, a COX-2 inhibitor, was applied on rabbit ear wounds to evaluate its effect on formation of hypertrophic scars. Similarly, treatment of 2 mg/wound of Celecoxib on rabbit ear wounds reduced the hypertrophy of the scar from 1.53±0.10 to 1.23±0.07 (FIG. 5C, D, and G).

[3] = test system: stratified keratinocytes (HaCaT); test: Sodium flux by scanning ion-selective electrode technique (SIET) in stratified keratinocyte culture with increased water loss; assay type: cell-based, human; parameters: dose or concentration left out as unconfirmed; conditions: amiloride
Description: As described in Example 1, HESCs or stratified keratinocytes (HaCaT) were cultured for 16 hours in the indicated conditions and ion fluxes were measured immediately after the samples were submerged in the bathing buffer. Sodium flux in HESCs culture with increased water loss (A) or increased media sodium concentration (10% more than control) (B). Sodium flux in stratified keratinocytes culture with increased water loss (C) or sodium concentration (D). Calcium (E) or chloride (F) flux in stratified keratinocytes culture with increased water loss. (G) Sodium flux in amiloride treated stratified keratinocytes culture with increased water loss. […] Background readings were obtained more than 1000 μm away from the sample. *p<0.05, **p<0.01.
Increased trans-epidermal water loss results in higher sodium flux. To estimate the change of sodium flux of skin, the sodium flux was measured in human ex vivo skin culture (HESC), which retains important elements of in vivo skin and recapitulates the features of human wound repair (25, 26). […] To validate increased TEWL, expression levels of aquaporin 3 (AQP3) were measured, which has been reported as a molecular marker to indicate the hydration conditions of skin (27, 28). […]
Changes in sodium flux were evaluated using a scanning ion-selective electrode technique (SIET). […]

[4] = test system: COX-2; test: COX-2 mRNA expression by RT-qPCR in human foreskin keratinocytes (HK) culture; assay type: cell-based; conditions: HKs with calcium channel blocked
Description: FIGS. 2A-F. Regulation of COX-2 and PGE2 by sodium flux is mediated by ENaC. FIGS. A and B show mRNA expression analysis of COX-2 as described in Example 1. (A) COX-2 mRNA expression in HESCs. HESCs were cultured with increased water loss condition for 4 or 16 hours (n=4). Total RNAs were isolated and RT-qPCR was performed. Gene expression was normalized according to the expression level of GAPDH. The level of COX-2 expression in HESCs treated with increased water loss was compared to that in control cells, which was set at 100% as expression level. (B) COX-2 mRNA expression keratinocytes culture. Stratified wild type or ENaC-knockdown HaCaT cells were cultured with increased water loss or sodium concentration condition for 16 hours (n=4). (C) PGE2 protein expression. Monolayer wild type or ENaC-knockdown HaCaT cells were cultured with increased sodium concentration condition for 16 hours (n=4). The amount of PGE2 in culture medium was measured by ELISA. (D) Western blot analysis (n=4). […] After 10, 30, 60, 240 minutes treatment, samples were harvested and western blot was performed with antibodies against phosphorylated-Akt, and Akt. β-actin was detected as a loading control. […] Cox-2 mRNA (E) and PGE2 (F) protein expression were analyzed by RT-qPCR and ELISA. *p<0.05, **p<0.01. […]

[5] = test system: IL-8; test: Expression of IL-8 in keratinocytes incubated with trypsin; assay type: cell-based, human; conditions: for up-regulation of IL-8: high concentration of sodium stimulation
Excerpt: (§1) FIGS. 9A-I. Prss8 is an important protein downstream of Nax. […] As a primary function, Prss8 can activate ENaC by cleaving its a subunit. The cleaved and non-cleaved bands can be visualized by an ENaC specific protein with western blotting (H). […] However, the cleavage of the ENaC a subunit was enhance by trypsin in Nax knockdown keratinocytes (H and I). FIG. 10. The keratinocytes differentiation with or without knockdown of Nax. Keratinocytes can be differentiated in differentiation medium to form a multiple cell layer structure like skin epidermis (Panel A). […] Knockdown of Nax inhibited the keratinocyte differentiation (Panel B) with the absence of K10 marker in the cell (Panel E). […] The expression of differentiation markers are similar to the differentiated wild type keratinocytes.
(§2) To further confirm the pathway of Nax-Prss8-ENaC, a Prss8 homolog, trypsin was used to activate the ENaC with the knockdown of Nax.

[6] = test system: ENaC a subunit; test: Cleavage of the ENaC α subunit by western blotting in keratinocytes; assay type: cell-based, human; conditions: Nax knockdown keratinocytes
Excerpt: as §1

[7] = test system: IL-1β; test: Expression of IL-1β in keratinocytes incubated with trypsin; assay type: cell-based, human; conditions: for up-regulation of IL-1β: high concentration of sodium stimulation
Excerpt: as §1, §2

[8] = test system: COX-2; test: Expression of COX-2 in keratinocytes incubated with trypsin; assay type: cell-based, human; conditions: for up-regulation of COX-2: high concentration of sodium stimulation
[9] = test system: keratinocytes; test: Keratinocyte differentiation in differentiation medium (K14/K10 markers); assay type: cell-based, human; conditions: Nax knockdown keratinocytes, daily incubation with differentiation medium containing 10 ug/ml trypsin
Excerpt: as §1, §2

[10] = wild type keratinocytes, 10 μg/ml trypsin

With CC(C)Oc1ccc2c(=O)c3cc(C(=O)O)ccc3oc2c1 [AH6809] the activation of fibroblasts [1] was “reduced activation of fibroblasts to control levels”.

CCCCCC(O)CCC1CCC(=O)N1CCCCCCC(=O)O (centres unmarked) [CAY10580] was tested, and the activation of fibroblasts [1] was “reduced activation of fibroblasts to control levels”.

For Cc1ccc(-c2cc(C(F)(F)F)nn2-c2ccc(S(N)(=O)=O)cc2)cc1 [Celecoxib], the “scar elevation index (SEI)” value ([2]; rabbit ear wounds, 2 mg/wound) was 1.23±0.07.

CCCCC[C@H](O)/C=C/[C@H]1[C@H](O)CC(=O)[C@@H]1C/C=C\CCCC(=O)O [PGE2, prostaglandin E2] was tested, and the “activation of fibroblasts (α-SMA and pro-Col I)” value ([1]; 10 μM PGE2 added to ENaC knockdown HaCaT culture conditioned medium, 24 hours) was “successfully rescued”.

N=C(N)NC(=O)c1nc(Cl)c(N)nc1N [amiloride] was tested, and the “enhanced sodium flux due to increased water loss” value [3] was “completely abolished”, the “scar formation / hypertrophy of rabbit ear scar (in words)” value ([2]; rabbit ear scar treatment, 28 days post wounding) was “clearly showed the improvement of the scar formation” and the “reduction of scar formation compared to control wound healing groups” value ([2]; rabbit ear wounds, lower concentrations) was “did not show significant reduction”. For the same compound, the “scar elevation index (SEI)” value ([2]; rabbit ear wounds, 0.5 mg/wound) was 1.06±0.05.

In the case of COC(=O)C1=C(C)NC(C)=C(C(=O)OC2CCCN(Cc3ccccc3)C2)C1c1cccc([N+](=O)[O-])c1 (centres unmarked) [benidipine hydrochloride], the “increased expression levels of COX-2 during increased water loss or sodium concentration” value [4] was “not abolished”.

With trypsin the “up-regulation of IL-8” value ([5]; ENaC knockdown keratinocytes) was “recovered the up-regulation”, the “up-regulation of IL-8” value ([5]; Nax knockdown keratinocytes) was “recovered the up-regulation; also recorded: up-regulated” and the “expression of IL-8” value [5, 10] was “significantly increased”. For the same compound, the “cleavage of the ENaC a subunit” value [6] was “enhance”, the “up-regulation of IL-1β” value ([7]; ENaC knockdown keratinocytes) was “recovered the up-regulation” and the “up-regulation of IL-1β” value ([7]; Nax knockdown keratinocytes) was “recovered the up-regulation; also recorded: up-regulated”. The “expression of IL-1β” value [7, 10] was “significantly increased”, the “up-regulation of COX-2” value ([8]; ENaC knockdown keratinocytes) was “but not in ENaC knockdown cells” and the “up-regulation of COX-2” value ([8]; Nax knockdown keratinocytes) was “recovered the up-regulation; also recorded: up-regulated”. The “expression of COX-2” value [8, 10] was “significantly increased” and the differentiation of keratinocytes [9] was “re-established the differentiation; also recorded: successfully recovered the differentiation”.
